Our source for the remaining activity values is publication PMC11864979, “First-in-class ultralong-target-residence-time p38α inhibitors as a mitosis-targeted therapy for colorectal cancer” (Nature Cancer, 2025).

Experiment in all cases: selectivity profiling in a panel of 340 wild-type kinases (Reaction Biology Europe)
Assay type in all cases: binding

Experiment [1] deals with T1, 340 wild-type kinases (Homo sapiens, UniProt O75676).
T1 construct: purchased Reaction Biology Europe

In experiment [2] the target is T2, 340 wild-type kinases (Homo sapiens, UniProt P30291).
T2 construct: purchased Reaction Biology Europe
T2 sequence (P30291 whole entry): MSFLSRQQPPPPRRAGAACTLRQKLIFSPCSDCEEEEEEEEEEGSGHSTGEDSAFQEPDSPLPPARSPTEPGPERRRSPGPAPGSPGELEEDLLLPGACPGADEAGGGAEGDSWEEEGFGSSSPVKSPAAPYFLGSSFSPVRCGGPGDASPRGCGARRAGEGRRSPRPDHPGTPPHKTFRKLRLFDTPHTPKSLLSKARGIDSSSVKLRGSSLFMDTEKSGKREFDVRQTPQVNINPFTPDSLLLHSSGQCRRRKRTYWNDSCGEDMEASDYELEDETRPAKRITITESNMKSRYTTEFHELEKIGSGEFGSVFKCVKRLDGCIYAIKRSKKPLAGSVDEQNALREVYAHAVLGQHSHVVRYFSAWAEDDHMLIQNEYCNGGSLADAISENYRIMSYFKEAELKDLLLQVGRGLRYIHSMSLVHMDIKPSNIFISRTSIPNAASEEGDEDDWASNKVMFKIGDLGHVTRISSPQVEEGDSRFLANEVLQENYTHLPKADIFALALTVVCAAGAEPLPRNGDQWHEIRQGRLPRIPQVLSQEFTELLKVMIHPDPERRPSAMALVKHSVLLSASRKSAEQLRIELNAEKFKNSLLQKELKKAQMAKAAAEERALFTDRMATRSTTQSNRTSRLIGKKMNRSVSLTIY

The target of experiment [3] is T3, 340 wild-type kinases (Homo sapiens, UniProt Q02156).
T3 construct: purchased Reaction Biology Europe
T3 sequence (Q02156 1-737): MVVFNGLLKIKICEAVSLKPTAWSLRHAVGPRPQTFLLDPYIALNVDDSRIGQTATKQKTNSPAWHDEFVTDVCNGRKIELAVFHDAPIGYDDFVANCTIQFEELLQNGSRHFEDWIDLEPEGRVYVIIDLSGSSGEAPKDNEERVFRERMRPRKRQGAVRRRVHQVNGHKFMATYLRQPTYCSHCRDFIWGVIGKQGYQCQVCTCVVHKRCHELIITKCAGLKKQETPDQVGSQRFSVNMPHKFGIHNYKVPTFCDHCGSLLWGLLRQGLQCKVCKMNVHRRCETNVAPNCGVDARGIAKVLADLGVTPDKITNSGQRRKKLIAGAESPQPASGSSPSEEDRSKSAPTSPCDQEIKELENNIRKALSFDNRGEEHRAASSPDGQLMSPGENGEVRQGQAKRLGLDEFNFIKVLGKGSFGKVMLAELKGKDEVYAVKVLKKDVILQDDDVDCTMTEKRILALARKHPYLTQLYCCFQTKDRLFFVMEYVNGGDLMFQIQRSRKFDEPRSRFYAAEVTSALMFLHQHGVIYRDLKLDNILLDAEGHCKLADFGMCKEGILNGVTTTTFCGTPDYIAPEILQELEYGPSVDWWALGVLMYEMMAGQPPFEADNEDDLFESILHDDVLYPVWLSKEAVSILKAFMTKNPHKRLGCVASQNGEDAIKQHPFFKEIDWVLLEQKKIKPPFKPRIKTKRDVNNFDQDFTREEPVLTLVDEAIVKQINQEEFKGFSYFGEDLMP

Experiment [4] concerns the target T4, 340 wild-type kinases (Homo sapiens, UniProt Q8TD08).
T4 construct: purchased Reaction Biology Europe
T4 sequence (Q8TD08 1-544): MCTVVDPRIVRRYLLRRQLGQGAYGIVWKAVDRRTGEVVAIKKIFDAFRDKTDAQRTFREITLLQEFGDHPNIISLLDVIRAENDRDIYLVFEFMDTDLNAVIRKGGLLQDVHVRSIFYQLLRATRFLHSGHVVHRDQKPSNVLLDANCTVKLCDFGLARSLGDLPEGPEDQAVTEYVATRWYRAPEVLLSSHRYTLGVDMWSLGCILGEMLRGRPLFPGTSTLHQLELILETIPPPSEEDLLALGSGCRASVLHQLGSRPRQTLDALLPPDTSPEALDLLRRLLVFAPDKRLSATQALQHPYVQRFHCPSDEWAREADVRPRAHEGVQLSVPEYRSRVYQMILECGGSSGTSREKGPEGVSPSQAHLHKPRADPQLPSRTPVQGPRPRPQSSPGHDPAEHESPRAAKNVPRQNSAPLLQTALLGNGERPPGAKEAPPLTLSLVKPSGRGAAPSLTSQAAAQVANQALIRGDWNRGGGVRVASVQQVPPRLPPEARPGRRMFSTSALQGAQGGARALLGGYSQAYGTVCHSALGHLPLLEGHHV

Experiment [5] has as its target T5, 340 wild-type kinases (Homo sapiens, UniProt Q9H3Y6).
T5 construct: purchased Reaction Biology Europe

Experiment [6] addresses T6, 340 wild-type kinases (Homo sapiens, UniProt Q9Y6E0).
T6 construct: purchased Reaction Biology Europe

Where two headings read alike, the source gives them in different places.

T5 sequence (Q9H3Y6 whole entry): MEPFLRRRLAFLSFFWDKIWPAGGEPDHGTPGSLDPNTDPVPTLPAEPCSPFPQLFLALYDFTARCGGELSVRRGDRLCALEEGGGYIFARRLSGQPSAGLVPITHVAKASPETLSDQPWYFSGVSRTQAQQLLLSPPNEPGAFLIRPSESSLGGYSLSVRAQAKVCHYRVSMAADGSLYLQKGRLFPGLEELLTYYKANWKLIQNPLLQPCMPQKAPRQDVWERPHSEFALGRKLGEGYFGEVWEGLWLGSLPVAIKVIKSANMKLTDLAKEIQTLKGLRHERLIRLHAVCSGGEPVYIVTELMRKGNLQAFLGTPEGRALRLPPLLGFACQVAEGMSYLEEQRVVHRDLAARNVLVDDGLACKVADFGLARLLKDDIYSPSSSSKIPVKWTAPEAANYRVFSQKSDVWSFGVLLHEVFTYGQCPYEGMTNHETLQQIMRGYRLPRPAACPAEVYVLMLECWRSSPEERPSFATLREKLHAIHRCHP
T6 sequence (Q9Y6E0 whole entry): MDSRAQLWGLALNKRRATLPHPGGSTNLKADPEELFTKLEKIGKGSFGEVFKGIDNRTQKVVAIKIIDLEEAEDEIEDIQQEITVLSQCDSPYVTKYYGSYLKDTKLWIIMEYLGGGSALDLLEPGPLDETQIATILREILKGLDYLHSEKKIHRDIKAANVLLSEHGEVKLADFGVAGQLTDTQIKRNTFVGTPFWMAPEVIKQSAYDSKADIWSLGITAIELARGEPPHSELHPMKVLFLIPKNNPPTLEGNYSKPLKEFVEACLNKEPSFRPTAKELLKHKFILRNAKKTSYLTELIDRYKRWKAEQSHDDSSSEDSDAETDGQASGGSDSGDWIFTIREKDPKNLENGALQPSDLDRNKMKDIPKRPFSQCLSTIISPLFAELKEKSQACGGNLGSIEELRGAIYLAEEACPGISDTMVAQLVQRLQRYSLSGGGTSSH
T1 sequence (O75676 whole entry): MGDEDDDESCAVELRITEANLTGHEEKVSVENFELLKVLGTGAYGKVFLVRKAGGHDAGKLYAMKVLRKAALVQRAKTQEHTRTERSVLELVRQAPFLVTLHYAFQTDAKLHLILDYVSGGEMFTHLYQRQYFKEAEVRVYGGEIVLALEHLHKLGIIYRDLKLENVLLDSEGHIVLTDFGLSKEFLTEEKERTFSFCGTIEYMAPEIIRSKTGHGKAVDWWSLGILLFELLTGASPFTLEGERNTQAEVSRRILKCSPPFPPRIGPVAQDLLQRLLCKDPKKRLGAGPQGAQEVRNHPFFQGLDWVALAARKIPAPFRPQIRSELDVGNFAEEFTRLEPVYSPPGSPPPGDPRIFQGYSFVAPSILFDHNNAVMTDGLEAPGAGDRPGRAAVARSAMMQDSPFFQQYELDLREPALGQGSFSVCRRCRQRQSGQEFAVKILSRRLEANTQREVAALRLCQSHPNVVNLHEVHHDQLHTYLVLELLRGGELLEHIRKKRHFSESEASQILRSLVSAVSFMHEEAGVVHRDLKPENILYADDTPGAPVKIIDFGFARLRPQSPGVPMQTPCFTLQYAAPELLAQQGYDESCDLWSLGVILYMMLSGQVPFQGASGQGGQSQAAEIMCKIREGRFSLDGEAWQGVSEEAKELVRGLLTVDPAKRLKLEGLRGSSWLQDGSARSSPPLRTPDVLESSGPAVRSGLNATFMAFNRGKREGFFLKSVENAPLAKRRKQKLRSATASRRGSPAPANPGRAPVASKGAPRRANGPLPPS

For `CNC(=O)c1ccc2c(c1)C(=O)c1ccc(Nc3ccc(F)c(NC(=O)C4CC4)c3)cc1CC2` [Compound 2015], the remaining activity at 0.2 µM at 340 wild-type kinases [1] (0.2 µM 2015, read-out: RPS6KA4 residual activity) worked out at 95.3%; at 340 wild-type kinases [1] (RPS6KA4, 0.2 µM, read-out: residual activity), 95.3%; on 340 wild-type kinases [2] (0.2 µM 2015, read-out: WEE1 residual activity) it was 91.7%; on 340 wild-type kinases [2] (WEE1, 0.2 µM, read-out: residual activity), 91.7%; on 340 wild-type kinases [3] (0.2 µM 2015, read-out: PKCepsilon residual activity), 83.1%; on 340 wild-type kinases [3] (PKCepsilon, 0.2 µM, read-out: residual activity), 83.1%. In addition, the remaining activity at 0.2 µM worked out at 93% on 340 wild-type kinases [4] (0.2 µM 2015, read-out: ERK7 residual activity); 93% at 340 wild-type kinases [4] (ERK7, 0.2 µM, read-out: residual activity); 96.9% at 340 wild-type kinases [5] (0.2 µM 2015, read-out: SRMS residual activity); 96.9% on 340 wild-type kinases [5] (SRMS, 0.2 µM, read-out: residual activity); 119% at 340 wild-type kinases [6] (0.2 µM 2015, read-out: MST3 residual activity); 119% on 340 wild-type kinases [6] (MST3, 0.2 µM, read-out: residual activity). Moreover, the remaining activity at 1 µM on 340 wild-type kinases [1] (1 µM 2015, read-out: RPS6KA4 residual activity) is 89.4%; at 340 wild-type kinases [1] (RPS6KA4, 1 µM, read-out: residual activity), 89.4%; at 340 wild-type kinases [2] (1 µM 2015, read-out: WEE1 residual activity), 83.3%; at 340 wild-type kinases [2] (WEE1, 1 µM, read-out: residual activity), 83.3%; on 340 wild-type kinases [3] (1 µM 2015, read-out: PKCepsilon residual activity) it was 90.5%; at 340 wild-type kinases [3] (PKCepsilon, 1 µM, read-out: residual activity) it was 90.5%. Also, the remaining activity at 1 µM at 340 wild-type kinases [4] (1 µM 2015, read-out: ERK7 residual activity) was found to be 82.2%; at 340 wild-type kinases [4] (ERK7, 1 µM, read-out: residual activity), 82.2%; at 340 wild-type kinases [5] (1 µM 2015, read-out: SRMS residual activity) it was 98.5%; on 340 wild-type kinases [5] (SRMS, 1 µM, read-out: residual activity), 98.5%; on 340 wild-type kinases [6] (1 µM 2015, read-out: MST3 residual activity), 117%; at 340 wild-type kinases [6] (MST3, 1 µM, read-out: residual activity), 117%.
